Laboratory results from ChEMBL document CHEMBL1159238, “Brevitaxin, a new diterpenolignan from the bark of Taxus brevifolia” (1995).
Activity calls are given as the source filed them. The calls are words filed in the database; no cut-off is given here.

Columns and labels:
NCI60 = assay: Cytotoxicity against human NCI60 cells; type: functional, cell-based
DU-145 = assay: Cytotoxicity against human DU145 cells; type: functional; conditions: read-out: ED50 (the source's name)

Structure (SMILES): COc1cc([C@@H]2Oc3c(C(C)C)cc4c(=O)cc5c(cc4c3O[C@H]2CO)C=CC(=O)C5(C)C)ccc1O [BREVITAXIN]
- Activity (NCI60): Active
- EC50 (DU-145): 6.8 µM
